In ChEMBL document CHEMBL5696442, “Discovery of type II inhibitors of TGFβ-activated kinase 1 (TAK1) and mitogen-activated protein kinase kinase kinase kinase 2 (MAP4K2)” (J Med Chem, 2015) one finds inhibition, residual activity and percent of control data, which are given here for three molecules.

SMILES strings stand for the structures. Calls of active or inactive are those of the source. The calls are words filed in the database; no cut-off is given here.

The target in assay [1] is T1, Interleukin-1 receptor-associated kinase 4 (Homo sapiens) (UniProt Q9NWZ3).
T1 sequence (whole entry): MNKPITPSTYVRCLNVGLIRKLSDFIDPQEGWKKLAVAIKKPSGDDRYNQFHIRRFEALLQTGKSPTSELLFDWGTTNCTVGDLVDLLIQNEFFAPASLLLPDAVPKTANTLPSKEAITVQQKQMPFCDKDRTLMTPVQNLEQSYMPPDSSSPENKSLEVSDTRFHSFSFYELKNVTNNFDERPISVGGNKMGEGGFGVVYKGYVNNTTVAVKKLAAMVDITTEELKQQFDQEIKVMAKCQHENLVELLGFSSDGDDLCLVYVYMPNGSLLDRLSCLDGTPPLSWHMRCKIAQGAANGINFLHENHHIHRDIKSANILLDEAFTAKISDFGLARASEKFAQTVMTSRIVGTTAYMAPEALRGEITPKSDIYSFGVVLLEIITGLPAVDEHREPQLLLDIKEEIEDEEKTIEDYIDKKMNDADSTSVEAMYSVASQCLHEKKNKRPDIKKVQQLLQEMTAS
Description: Inhibition of IRAK4 (unknown origin) at 1 uM by Ambit Kinomescan binding assay relative to control.

Assay [2] deals with Mitogen-activated protein kinase kinase kinase 12 (Homo sapiens) (UniProt Q12852). Description: Inhibition of DLK Lys2 labeling site harbouring in human A-375 cells at 0.5 uM by KiNativ Profiling analysis relative to control.
Sequence of Mitogen-activated protein kinase kinase kinase 12 (Homo sapiens) (Q12852 whole entry, looked up): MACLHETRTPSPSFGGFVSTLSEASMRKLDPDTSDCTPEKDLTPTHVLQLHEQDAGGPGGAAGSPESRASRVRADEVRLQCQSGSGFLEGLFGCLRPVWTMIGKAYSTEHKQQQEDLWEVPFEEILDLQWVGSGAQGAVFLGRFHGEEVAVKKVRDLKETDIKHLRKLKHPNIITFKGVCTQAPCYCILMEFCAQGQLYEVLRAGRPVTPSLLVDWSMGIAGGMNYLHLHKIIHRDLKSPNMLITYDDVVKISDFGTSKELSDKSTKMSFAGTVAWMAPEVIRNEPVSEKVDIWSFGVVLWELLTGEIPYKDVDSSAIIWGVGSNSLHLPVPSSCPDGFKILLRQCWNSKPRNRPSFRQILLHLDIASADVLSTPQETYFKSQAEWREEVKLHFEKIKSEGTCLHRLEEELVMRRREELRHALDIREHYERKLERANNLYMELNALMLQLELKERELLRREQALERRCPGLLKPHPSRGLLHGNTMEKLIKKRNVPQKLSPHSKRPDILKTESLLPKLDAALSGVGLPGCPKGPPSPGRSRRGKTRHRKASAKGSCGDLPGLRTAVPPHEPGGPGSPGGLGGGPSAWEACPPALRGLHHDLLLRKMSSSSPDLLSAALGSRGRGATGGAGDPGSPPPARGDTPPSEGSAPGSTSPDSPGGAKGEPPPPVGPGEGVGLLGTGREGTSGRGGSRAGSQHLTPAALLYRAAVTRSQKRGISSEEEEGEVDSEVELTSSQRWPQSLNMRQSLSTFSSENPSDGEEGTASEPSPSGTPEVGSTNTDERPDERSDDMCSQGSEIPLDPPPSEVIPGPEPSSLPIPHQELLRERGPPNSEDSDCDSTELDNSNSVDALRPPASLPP
The target in assay [3] is Serine/threonine-protein kinase RIO2 (Homo sapiens) (UniProt Q9BVS4). Description: Inhibition of RIOK2 (unknown origin) at 1 uM by Ambit Kinomescan binding assay relative to control.
Sequence of Serine/threonine-protein kinase RIO2 (Homo sapiens) (Q9BVS4 whole entry, looked up): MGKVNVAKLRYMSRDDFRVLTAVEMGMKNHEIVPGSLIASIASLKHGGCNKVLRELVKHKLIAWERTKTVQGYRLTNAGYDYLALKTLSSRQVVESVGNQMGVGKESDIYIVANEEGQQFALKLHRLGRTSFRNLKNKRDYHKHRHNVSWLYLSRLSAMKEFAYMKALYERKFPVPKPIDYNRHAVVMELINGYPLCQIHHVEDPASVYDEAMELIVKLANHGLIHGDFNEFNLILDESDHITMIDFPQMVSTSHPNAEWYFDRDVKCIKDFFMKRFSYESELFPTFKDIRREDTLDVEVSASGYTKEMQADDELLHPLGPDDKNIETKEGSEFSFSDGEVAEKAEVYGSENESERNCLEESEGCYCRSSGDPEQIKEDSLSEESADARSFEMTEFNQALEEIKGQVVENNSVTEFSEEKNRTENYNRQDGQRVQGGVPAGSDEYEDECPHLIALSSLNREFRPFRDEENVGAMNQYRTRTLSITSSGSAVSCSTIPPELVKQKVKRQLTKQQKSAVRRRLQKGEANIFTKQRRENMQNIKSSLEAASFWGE
Assay [4] has as its target Insulin receptor-related protein (Homo sapiens) (UniProt P14616). Put plainly: Inhibition of INSRR (unknown origin) at 1 uM by Ambit Kinomescan binding assay relative to control; values are per cent of control.
Assay [5] deals with Glycogen synthase kinase-3 beta (Homo sapiens) (UniProt P49841). Description: Inhibition of GSK3B Lys2 labeling site in human A-375 cells at 0.5 uM by KiNativ Profiling analysis relative to control. In kind it is cell-based.
Sequence of Glycogen synthase kinase-3 beta (Homo sapiens) (P49841 whole entry, looked up): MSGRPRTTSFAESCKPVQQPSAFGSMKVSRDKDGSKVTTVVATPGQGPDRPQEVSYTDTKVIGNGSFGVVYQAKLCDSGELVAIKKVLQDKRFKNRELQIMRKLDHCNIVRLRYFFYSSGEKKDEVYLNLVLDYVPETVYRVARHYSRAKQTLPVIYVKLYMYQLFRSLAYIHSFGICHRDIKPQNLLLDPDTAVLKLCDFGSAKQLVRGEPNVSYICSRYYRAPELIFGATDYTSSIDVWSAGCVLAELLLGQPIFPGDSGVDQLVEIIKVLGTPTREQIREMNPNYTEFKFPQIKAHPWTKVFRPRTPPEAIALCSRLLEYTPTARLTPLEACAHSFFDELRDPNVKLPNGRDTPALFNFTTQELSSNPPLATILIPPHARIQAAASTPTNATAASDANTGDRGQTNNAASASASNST
Assay [6] has as its target Phosphatidylinositol 4-phosphate 5-kinase type-1 gamma (Homo sapiens) (UniProt O60331). Description: Inhibition of PIP5K1C (unknown origin) at 1 uM by Ambit Kinomescan binding assay relative to control; values are per cent of control.
Assay [7] addresses Maternal embryonic leucine zipper kinase (Homo sapiens) (UniProt Q14680). Put plainly: Inhibition of MELK (unknown origin) at 10 uM by Ambit Kinomescan binding assay.
A further assay concerns 293-IL-1R. Put plainly: Inhibition of IL-1alpha induced p38 phosphorylation level in human 293-IL-1R cells preincubated for 1 hr followed by IL-1 alpha stimulation and measured after 30 mins by Western blot analysis. Conditions: dose 0.01-10 µM. In kind it is functional, cell-based. A general note: Immunoblotting shows a protein as a band on a membrane.
Assay [8] deals with Epithelial discoidin domain-containing receptor 1 (Homo sapiens) (UniProt Q08345). Description: Inhibition of DDR1 (unknown origin) at 10 uM by Ambit Kinomescan binding assay; values are per cent of control.
Sequence of Epithelial discoidin domain-containing receptor 1 (Homo sapiens) (Q08345 whole entry, the tested form may be a part): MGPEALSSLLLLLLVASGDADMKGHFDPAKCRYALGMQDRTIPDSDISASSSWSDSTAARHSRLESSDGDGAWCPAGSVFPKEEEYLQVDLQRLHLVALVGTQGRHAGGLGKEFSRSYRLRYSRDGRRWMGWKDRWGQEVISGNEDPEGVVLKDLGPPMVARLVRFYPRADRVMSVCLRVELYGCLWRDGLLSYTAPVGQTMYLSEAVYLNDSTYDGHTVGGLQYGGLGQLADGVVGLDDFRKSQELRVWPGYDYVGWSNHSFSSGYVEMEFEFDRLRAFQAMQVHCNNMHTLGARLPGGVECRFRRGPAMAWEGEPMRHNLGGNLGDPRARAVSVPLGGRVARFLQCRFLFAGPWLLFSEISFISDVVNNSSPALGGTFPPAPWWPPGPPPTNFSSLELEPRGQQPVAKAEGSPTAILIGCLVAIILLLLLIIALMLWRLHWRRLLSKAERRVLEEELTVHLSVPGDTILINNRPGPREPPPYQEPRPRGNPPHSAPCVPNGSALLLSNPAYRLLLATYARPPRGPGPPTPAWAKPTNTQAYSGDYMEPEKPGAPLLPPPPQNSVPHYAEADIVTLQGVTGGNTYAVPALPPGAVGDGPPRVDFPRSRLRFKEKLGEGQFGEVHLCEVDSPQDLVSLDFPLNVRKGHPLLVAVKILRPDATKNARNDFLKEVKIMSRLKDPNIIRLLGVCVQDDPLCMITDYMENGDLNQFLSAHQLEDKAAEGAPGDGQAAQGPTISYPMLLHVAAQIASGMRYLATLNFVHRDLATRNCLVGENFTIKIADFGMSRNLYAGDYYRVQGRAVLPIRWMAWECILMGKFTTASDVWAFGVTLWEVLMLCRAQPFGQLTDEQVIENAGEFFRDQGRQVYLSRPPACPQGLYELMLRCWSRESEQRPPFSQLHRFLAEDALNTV
Assay [9] has as its target Cyclin-dependent kinase 5 (Homo sapiens) (UniProt Q00535). Description: Inhibition of CDK5 (unknown origin) at 10 uM by Ambit Kinomescan binding assay relative to control.
For assay [10], the target named is Microtubule-associated serine/threonine-protein kinase 1 (Homo sapiens) (UniProt Q9Y2H9). Put plainly: Inhibition of MAST1 Lys2 labeling site in human A-375 cells at 5 uM by KiNativ Profiling analysis relative to control.
For assay [11], the target named is MAP/microtubule affinity-regulating kinase 4 (Homo sapiens) (UniProt Q96L34). Put plainly: Inhibition of MARK4 (unknown origin) at 10 uM by Ambit Kinomescan binding assay.
Sequence of MAP/microtubule affinity-regulating kinase 4 (Homo sapiens) (Q96L34 whole entry): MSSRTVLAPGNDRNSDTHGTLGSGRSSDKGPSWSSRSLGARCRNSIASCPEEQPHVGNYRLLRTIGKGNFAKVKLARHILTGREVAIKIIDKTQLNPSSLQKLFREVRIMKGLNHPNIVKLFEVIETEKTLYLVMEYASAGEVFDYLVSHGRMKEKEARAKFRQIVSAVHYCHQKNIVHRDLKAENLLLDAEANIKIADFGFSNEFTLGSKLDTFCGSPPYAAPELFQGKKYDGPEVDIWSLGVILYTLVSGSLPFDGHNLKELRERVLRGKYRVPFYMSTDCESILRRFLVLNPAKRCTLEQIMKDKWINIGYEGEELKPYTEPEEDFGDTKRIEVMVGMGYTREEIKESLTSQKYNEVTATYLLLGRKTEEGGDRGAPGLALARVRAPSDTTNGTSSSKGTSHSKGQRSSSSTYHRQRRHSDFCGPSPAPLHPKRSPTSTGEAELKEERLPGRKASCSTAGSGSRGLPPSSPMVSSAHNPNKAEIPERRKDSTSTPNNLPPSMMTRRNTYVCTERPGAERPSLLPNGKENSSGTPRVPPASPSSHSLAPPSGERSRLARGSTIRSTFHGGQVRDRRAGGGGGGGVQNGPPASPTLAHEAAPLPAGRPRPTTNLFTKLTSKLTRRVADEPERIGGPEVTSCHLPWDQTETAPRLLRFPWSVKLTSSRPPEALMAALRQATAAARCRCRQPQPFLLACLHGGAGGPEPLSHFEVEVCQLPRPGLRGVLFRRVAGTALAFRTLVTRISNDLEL
In assay [12] the target is Serine/threonine-protein kinase/endoribonuclease IRE1 (Homo sapiens) (UniProt O75460). Description: Inhibition of IRE1 Lys2 labeling site in human Huh-7 cell lysate at 1 uM by KiNativ Profiling analysis relative to control. It is filed as subcellular.
Assay [13] concerns the target T2, Dual specificity mitogen-activated protein kinase kinase 4 (Homo sapiens) (UniProt P45985).
T2 sequence (whole entry): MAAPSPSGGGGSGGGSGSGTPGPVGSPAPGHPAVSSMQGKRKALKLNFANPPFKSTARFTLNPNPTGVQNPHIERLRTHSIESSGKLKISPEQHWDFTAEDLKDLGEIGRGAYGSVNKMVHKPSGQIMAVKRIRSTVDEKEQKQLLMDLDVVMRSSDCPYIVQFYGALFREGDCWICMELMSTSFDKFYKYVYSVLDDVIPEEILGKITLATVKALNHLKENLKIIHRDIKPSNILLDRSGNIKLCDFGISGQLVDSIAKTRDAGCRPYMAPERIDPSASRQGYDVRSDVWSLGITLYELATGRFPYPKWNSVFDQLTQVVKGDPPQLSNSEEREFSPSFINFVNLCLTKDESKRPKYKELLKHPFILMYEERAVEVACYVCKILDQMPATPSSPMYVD
Put plainly: Inhibition of MAP2K4 Lys2 labeling site in human Huh-7 cell lysate at 1 uM by KiNativ Profiling analysis relative to control. It is filed as subcellular.

Assay [14] concerns the target RAF proto-oncogene serine/threonine-protein kinase (Homo sapiens, UniProt P04049). Description: Inhibition of RAF1 Lys2 labeling site in human Huh-7 cells at 1 uM by KiNativ Profiling analysis relative to control. In kind it is cell-based.
Assay [15] has as its target Calcium/calmodulin-dependent protein kinase type II subunit gamma (Homo sapiens) (UniProt Q13555). Description: Inhibition of CaMK2g Lys1 labeling site harbouring KTSTQEYAAKIINTK in human Huh-7 cell lysate at 1 uM by KiNativ Profiling analysis relative to control. It is filed as subcellular.

Sequence of RAF proto-oncogene serine/threonine-protein kinase (P04049 whole entry): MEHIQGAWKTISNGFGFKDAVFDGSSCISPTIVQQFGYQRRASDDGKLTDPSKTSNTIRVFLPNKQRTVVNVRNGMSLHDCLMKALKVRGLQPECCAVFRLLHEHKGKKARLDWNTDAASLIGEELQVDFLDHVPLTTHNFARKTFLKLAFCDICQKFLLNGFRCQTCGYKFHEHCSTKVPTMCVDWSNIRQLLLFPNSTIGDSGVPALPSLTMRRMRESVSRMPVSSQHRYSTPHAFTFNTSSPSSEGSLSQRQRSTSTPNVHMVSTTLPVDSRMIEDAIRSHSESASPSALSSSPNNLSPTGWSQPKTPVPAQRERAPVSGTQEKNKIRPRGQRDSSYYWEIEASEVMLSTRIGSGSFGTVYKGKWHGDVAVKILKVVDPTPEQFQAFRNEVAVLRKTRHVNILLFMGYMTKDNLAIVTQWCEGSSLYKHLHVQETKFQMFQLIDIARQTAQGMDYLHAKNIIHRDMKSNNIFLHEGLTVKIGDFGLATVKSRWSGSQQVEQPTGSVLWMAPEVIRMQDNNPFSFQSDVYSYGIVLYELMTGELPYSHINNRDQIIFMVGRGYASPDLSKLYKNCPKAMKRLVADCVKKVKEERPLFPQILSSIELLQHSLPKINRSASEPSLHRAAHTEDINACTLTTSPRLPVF
Sequence of Cyclin-dependent kinase 5 (Homo sapiens) (Q00535 whole entry, looked up): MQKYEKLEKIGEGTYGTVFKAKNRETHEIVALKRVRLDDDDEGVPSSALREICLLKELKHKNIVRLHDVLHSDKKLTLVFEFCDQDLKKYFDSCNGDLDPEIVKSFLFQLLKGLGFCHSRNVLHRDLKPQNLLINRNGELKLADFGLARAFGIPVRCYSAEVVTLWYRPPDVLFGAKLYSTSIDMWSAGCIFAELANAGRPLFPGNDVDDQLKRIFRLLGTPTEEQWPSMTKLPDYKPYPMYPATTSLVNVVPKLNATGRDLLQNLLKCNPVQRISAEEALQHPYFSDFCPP
Sequence of Calcium/calmodulin-dependent protein kinase type II subunit gamma (Homo sapiens) (Q13555 whole entry): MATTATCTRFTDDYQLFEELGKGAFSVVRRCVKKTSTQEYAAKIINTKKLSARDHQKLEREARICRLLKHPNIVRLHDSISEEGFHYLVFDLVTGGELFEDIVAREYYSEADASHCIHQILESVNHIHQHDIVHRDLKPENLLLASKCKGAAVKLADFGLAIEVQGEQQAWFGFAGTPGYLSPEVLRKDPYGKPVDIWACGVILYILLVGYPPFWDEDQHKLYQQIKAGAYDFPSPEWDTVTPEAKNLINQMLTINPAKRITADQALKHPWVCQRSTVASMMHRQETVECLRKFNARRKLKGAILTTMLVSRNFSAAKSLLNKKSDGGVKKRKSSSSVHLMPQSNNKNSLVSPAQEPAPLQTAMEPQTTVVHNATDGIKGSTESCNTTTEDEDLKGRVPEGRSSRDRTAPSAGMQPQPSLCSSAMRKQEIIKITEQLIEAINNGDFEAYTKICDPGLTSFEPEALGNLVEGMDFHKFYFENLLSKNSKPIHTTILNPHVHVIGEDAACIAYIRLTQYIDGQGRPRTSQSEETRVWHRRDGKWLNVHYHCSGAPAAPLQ

In the case of `CCN1CCN(Cc2ccc(NC(=O)c3ccc(C)c(/C=C/c4cnc5[nH]ccc5c4OC)c3)cc2C(F)(F)F)CC1`, the inhibition came out at 100% in assay [1], 0.8% in assay [2], 61% in assay [3] and 34.9% in [5]. In assay [4], this molecule displayed a residual activity of 100%. The molecule also had a percent of control in assay [6] of 100%.

For `CCN1CCN(Cc2ccc(NC(=O)c3ccc(C)c(Oc4ccnc5[nH]ccc45)c3)cc2C(F)(F)F)CC1`, the inhibition result in assay [7] and in [11] was “inactive” throughout. Besides, the inhibition result was “Dose-Dependent Effect” in the assay with 293-IL-1R, 19% in assay [9] and -6.1% in assay [10]. For the same molecule, the percent of control in assay [8] stood at 0.05%.

As to `CNc1cc(Oc2cc(C(=O)Nc3cc(N4CCN(C)CC4)cc(C(F)(F)F)c3)ccc2C)ncn1`, the inhibition in assay [12] was -2.5%; in [13] it was -3.9%; in assay [14], 34.1%; in assay [15], 6.9%.

As a reminder, the inhibition is the relative decrease from the control value, in per cent. For orientation: residual activity means the activity still measured, relative to the control. A high value points to much activity left.
